{
  "source": "paper PMC7180948",
  "about": "“New Insights into 4-Anilinoquinazolines as Inhibitors of Cardiac Troponin I–Interacting Kinase (TNNi3K)” (Molecules, 2020)",
  "assay_in_all_cases": "biochemical",
  "parameters_in_all_cases": "KINOMEscan competition binding panel (Eurofins DiscoverX), single concentration, % inhibition",
  "settings_in_all_cases": "read-out: 7 at 1 µM % inhibition",
  "key": {"ZAP70": {"biological_target": "ZAP70 (Homo sapiens, UniProt P43403)", "procedure,_shortened": "(§1)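 KINOMEscan binding panel of >400 kinases, run by Eurofins DiscoverX, with compounds tested at a single concentration of 1 µM.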"}, "NEK2": {"biological_target": "NEK2 (Homo sapiens, UniProt P51955)", "procedure,_shortened": "as §1"}, "PIK3CA(E542K)": {"biological_target": "PIK3CA(E542K) (Homo sapiens, UniProt P42336, E542K)", "sequence (P42336 whole entry E542K)": "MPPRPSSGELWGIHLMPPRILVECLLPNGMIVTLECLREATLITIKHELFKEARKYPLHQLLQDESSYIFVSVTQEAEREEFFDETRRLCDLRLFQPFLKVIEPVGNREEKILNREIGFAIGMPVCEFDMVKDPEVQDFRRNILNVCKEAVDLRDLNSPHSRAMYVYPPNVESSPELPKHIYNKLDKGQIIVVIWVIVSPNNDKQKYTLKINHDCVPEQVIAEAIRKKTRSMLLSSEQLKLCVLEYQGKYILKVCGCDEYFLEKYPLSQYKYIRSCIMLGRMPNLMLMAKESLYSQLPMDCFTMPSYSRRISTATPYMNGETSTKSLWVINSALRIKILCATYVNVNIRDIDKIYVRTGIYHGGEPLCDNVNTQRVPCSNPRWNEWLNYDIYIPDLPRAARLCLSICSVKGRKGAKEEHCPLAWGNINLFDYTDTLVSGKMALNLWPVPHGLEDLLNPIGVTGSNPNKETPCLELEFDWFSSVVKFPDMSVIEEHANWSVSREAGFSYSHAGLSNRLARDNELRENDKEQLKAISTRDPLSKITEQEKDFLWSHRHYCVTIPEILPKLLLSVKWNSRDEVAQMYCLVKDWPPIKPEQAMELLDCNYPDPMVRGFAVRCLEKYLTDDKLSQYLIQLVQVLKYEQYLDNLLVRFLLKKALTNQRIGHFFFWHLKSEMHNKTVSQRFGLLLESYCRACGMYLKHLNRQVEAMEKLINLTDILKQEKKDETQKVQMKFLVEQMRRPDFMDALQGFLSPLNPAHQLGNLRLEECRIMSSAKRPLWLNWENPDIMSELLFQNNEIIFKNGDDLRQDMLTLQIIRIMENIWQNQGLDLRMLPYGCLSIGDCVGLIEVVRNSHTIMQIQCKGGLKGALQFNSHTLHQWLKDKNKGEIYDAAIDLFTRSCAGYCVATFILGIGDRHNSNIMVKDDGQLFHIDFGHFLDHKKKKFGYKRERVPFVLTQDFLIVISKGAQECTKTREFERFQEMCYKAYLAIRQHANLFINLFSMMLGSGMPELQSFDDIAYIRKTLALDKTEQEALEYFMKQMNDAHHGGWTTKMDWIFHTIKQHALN", "procedure,_shortened": "as §1"}, "PKN1": {"biological_target": "PKN1 (Homo sapiens, UniProt Q16512)", "procedure,_shortened": "as §1"}, "DAPK3": {"biological_target": "DAPK3 (Homo sapiens, UniProt O43293)", "procedure,_shortened": "as §1"}, "RET": {"biological_target": "RET (Homo sapiens, UniProt P07949)", "procedure,_shortened": "as §1"}, "WNK3": {"biological_target": "WNK3 (Homo sapiens, UniProt Q9BYP7)", "procedure,_shortened": "as §1"}, "FGR": {"biological_target": "FGR (Homo sapiens, UniProt P09769)", "procedure,_shortened": "as §1"}, "CAMK2D": {"biological_target": "CAMK2D (Homo sapiens, UniProt Q13557)", "sequence (Q13557 whole entry)": "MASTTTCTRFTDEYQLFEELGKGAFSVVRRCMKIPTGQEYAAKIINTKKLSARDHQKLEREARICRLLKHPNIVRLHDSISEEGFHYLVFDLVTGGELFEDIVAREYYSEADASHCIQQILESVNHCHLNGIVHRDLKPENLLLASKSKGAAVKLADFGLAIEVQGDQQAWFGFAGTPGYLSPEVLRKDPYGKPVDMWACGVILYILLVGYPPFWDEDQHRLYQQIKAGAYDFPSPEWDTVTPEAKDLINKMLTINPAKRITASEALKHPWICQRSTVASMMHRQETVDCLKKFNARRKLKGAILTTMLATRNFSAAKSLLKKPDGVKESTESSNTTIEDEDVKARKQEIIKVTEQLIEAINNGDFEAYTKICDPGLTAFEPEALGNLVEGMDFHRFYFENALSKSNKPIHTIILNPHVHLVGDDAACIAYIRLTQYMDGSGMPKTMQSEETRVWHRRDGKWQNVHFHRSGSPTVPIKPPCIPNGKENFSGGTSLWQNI", "procedure,_shortened": "as §1"}, "IRAK4": {"biological_target": "IRAK4 (Homo sapiens, UniProt Q9NWZ3)", "sequence (Q9NWZ3 whole entry)": "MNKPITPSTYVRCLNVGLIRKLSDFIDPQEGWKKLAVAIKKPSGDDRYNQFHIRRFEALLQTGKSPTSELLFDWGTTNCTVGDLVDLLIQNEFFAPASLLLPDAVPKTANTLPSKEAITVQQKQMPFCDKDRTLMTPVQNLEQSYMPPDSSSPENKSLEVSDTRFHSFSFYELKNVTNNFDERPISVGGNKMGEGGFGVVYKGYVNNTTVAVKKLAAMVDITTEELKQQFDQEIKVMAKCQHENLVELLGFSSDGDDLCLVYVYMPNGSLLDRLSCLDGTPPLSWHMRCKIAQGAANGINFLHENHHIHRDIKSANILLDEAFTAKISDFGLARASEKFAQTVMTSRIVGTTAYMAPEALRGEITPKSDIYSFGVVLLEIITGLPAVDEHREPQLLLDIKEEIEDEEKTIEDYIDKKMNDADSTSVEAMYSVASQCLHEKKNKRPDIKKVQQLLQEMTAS", "procedure,_shortened": "as §1"}, "CSNK1E": {"biological_target": "CSNK1E (Homo sapiens, UniProt P49674)", "procedure,_shortened": "as §1"}, "ROCK2": {"biological_target": "ROCK2 (Homo sapiens, UniProt O75116)", "procedure,_shortened": "as §1"}, "PLK1": {"biological_target": "PLK1 (Homo sapiens, UniProt P53350)", "procedure,_shortened": "as §1"}, "TRKA": {"biological_target": "T1, TRKA (Homo sapiens, UniProt P04629)", "T1 construct": "gene NTRK1", "procedure,_shortened": "as §1"}, "LRRK2": {"biological_target": "LRRK2 (Homo sapiens, UniProt Q5S007)", "procedure,_shortened": "as §1"}, "LYN": {"biological_target": "LYN (Homo sapiens, UniProt P07948)", "procedure,_shortened": "as §1"}, "YANK3": {"biological_target": "T2, YANK3 (Homo sapiens, UniProt Q86UX6)", "T2 construct": "gene STK32C", "procedure,_shortened": "as §1"}, "WEE2": {"biological_target": "WEE2 (Homo sapiens, UniProt P0C1S8)", "sequence (P0C1S8 whole entry)": "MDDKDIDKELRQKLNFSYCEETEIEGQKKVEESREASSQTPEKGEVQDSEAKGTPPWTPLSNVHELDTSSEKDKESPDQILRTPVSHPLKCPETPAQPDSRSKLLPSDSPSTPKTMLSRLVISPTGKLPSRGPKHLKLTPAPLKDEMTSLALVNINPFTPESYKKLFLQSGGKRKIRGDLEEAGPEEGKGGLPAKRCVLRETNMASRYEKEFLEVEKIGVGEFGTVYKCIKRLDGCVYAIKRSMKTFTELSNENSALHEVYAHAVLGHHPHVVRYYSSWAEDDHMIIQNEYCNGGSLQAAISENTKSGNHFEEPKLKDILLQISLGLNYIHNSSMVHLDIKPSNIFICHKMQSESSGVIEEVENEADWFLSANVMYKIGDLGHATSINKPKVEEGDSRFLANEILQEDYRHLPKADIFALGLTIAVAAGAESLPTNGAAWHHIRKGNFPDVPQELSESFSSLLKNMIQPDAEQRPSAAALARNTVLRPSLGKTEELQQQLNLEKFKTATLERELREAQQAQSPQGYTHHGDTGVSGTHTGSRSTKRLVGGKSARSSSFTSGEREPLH", "procedure,_shortened": "as §1"}, "PIK3CG": {"biological_target": "PIK3CG (Homo sapiens, UniProt P48736)", "sequence (P48736 whole entry)": "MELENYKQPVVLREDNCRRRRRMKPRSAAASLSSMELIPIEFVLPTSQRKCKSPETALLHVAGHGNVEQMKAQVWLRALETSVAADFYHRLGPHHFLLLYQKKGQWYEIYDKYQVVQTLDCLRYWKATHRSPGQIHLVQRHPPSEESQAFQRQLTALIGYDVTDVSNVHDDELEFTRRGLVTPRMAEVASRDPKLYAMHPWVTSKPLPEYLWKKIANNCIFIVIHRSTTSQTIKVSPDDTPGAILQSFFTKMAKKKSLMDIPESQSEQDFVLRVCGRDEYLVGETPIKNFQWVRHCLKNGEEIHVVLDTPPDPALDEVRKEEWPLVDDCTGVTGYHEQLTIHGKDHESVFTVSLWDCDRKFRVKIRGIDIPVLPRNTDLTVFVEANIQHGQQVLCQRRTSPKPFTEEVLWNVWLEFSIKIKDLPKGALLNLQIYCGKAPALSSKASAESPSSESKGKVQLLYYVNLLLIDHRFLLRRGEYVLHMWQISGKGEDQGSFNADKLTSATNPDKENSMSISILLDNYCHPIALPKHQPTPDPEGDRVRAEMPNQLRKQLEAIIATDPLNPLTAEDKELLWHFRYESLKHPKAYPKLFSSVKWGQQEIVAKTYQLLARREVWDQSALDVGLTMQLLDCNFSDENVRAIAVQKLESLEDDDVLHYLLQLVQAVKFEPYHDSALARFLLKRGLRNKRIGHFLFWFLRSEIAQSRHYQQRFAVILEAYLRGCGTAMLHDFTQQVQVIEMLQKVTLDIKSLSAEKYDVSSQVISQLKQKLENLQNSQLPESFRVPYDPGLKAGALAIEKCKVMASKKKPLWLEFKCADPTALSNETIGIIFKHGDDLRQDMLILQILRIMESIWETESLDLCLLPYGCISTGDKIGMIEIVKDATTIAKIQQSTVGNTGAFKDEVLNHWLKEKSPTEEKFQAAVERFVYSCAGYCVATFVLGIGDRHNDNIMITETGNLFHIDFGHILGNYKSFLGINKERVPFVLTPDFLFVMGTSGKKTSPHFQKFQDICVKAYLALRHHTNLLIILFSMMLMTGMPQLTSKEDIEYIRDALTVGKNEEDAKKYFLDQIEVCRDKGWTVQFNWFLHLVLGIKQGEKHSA", "procedure,_shortened": "as §1"}, "NEK1": {"biological_target": "NEK1 (Homo sapiens, UniProt Q96PY6)", "procedure,_shortened": "as §1"}, "PIK3CA(M1043I)": {"biological_target": "PIK3CA(M1043I) (Homo sapiens, UniProt P42336, M1043I)", "sequence (P42336 whole entry M1043I)": "as the sequence (P42336 whole entry E542K) above, with K542E, M1043I counted along it", "procedure,_shortened": "as §1"}, "[1]": {"biological_target": "T3, ABL1(T315I)-nonphosphorylated (Homo sapiens, UniProt P00519, T315I)", "T3 construct": "nonphosphorylated", "procedure,_shortened": "as §1"}, "[2]": {"biological_target": "EGFR(L747-S752del, P753S) (Homo sapiens, UniProt P00533, DEL747-752/P753S)", "sequence (P00533 with tags, fused parts or gaps DEL747-752/P753S)": "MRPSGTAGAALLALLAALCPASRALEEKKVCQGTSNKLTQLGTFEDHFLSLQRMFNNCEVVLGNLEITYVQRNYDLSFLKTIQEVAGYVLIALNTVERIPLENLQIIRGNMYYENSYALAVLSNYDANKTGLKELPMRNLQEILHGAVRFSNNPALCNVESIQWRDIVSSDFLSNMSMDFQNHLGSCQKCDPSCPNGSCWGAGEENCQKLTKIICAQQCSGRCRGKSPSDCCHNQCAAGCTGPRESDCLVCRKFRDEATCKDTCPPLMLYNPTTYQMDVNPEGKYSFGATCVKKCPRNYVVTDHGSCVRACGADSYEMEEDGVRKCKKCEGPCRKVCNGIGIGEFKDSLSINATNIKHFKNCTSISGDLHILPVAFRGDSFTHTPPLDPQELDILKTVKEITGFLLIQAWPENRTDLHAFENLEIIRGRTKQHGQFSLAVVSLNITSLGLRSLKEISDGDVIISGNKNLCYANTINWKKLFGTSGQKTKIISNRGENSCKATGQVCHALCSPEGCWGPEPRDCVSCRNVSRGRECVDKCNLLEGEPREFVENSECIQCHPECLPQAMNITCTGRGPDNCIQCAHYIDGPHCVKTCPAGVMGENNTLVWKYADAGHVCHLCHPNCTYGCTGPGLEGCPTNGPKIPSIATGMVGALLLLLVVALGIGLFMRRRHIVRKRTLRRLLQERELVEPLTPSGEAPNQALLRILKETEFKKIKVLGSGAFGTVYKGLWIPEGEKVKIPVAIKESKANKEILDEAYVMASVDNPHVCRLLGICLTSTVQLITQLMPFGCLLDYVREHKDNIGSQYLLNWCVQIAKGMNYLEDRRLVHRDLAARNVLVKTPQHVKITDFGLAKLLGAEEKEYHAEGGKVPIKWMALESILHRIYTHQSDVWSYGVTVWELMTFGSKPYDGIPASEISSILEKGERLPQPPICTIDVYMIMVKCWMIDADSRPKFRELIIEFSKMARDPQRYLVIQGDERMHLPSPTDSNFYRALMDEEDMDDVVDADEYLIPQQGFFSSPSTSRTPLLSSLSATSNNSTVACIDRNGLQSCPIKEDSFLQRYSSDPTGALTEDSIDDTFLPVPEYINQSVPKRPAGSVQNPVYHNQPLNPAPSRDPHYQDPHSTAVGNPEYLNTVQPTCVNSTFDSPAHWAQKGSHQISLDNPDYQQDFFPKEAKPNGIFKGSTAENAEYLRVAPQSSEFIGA", "procedure,_shortened": "as §1"}, "[3]": {"biological_target": "T4, JAK1(JH1domain-catalytic) (Homo sapiens, UniProt P23458)", "T4 construct": "JH1domain-catalytic", "procedure,_shortened": "as §1"}},
  "data": [
    {"smiles": "CNS(=O)(=O)c1ccc(N(C)C)c(Nc2ncnc3cc(OC)c(OC)cc23)c1", "note": "[compound 7, 3-((6,7-dimethoxyquinazolin-4-yl)amino)-4-(dimethylamino)-N-methylbenzenesulfonamide]", "values": [
      {"measurement": "inhibition at 1 µM", "setting": "ZAP70", "result": 53, "unit": "%"},
      {"measurement": "inhibition at 1 µM", "setting": "NEK2", "result": 2, "unit": "%"},
      {"measurement": "inhibition at 1 µM", "setting": "PIK3CA(E542K)", "result": 17, "unit": "%"},
      {"measurement": "inhibition at 1 µM", "setting": "PKN1", "result": 0, "unit": "%"},
      {"measurement": "inhibition at 1 µM", "setting": "DAPK3", "result": 9, "unit": "%"},
      {"measurement": "inhibition at 1 µM", "setting": "RET", "result": 11, "unit": "%"},
      {"measurement": "inhibition at 1 µM", "setting": "WNK3", "result": 2, "unit": "%"},
      {"measurement": "inhibition at 1 µM", "setting": "FGR", "result": 0, "unit": "%"},
      {"measurement": "inhibition at 1 µM", "setting": "CAMK2D", "result": 0, "unit": "%"},
      {"measurement": "inhibition at 1 µM", "setting": "IRAK4", "result": 56, "unit": "%"},
      {"measurement": "inhibition at 1 µM", "setting": "CSNK1E", "result": 0, "unit": "%"},
      {"measurement": "inhibition at 1 µM", "setting": "ROCK2", "result": 0, "unit": "%"},
      {"measurement": "inhibition at 1 µM", "setting": "PLK1", "result": 0, "unit": "%"},
      {"measurement": "inhibition at 1 µM", "setting": "TRKA", "result": 22, "unit": "%"},
      {"measurement": "inhibition at 1 µM", "setting": "LRRK2", "result": 9, "unit": "%"},
      {"measurement": "inhibition at 1 µM", "setting": "LYN", "result": 0, "unit": "%"},
      {"measurement": "inhibition at 1 µM", "setting": "YANK3", "result": 0, "unit": "%"},
      {"measurement": "inhibition at 1 µM", "setting": "WEE2", "result": 0, "unit": "%"},
      {"measurement": "inhibition at 1 µM", "setting": "PIK3CG", "result": 45, "unit": "%"},
      {"measurement": "inhibition at 1 µM", "setting": "NEK1", "result": 0, "unit": "%"},
      {"measurement": "inhibition at 1 µM", "setting": "PIK3CA(M1043I)", "result": 29, "unit": "%"},
      {"measurement": "inhibition at 1 µM", "setting": "[1]", "result": 33, "unit": "%"},
      {"measurement": "inhibition at 1 µM", "setting": "[2]", "result": 0, "unit": "%"},
      {"measurement": "inhibition at 1 µM", "setting": "[3]", "result": 0, "unit": "%"}
    ]}
  ]
}
